# Target: interaction between GST-MAGEA11 MHD and FAM-PCF11_4 peptide (MAGE-A11:PCF11) (Homo sapiens (Human), UniProt P43364)
# Assay: TR-FRET dose response competition assay for disruption of MAGE-A11:PCF11 binding
# Conditions: Dose response TR-FRET screening of nine scaffold groups against MAGE-A11:PCF11; read-out: consensus IC50
# Summary of the method: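 Competition TR-FRET at room temperature in 50 mM Tris pH 7.5, 20 mM MgCl2, 0.1 mg/ml BSA, 1 mM DTT: final 5 nM GST-MAGEA11 MHD, 5 nM Tb-anti-GST, 200 nM FAM-PCF11_4, 90 min. Ratio 520/490 nm converted to % inhibition; IC50 from sigmoidal fit.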
# Chain of interaction between GST-MAGEA11 MHD and FAM-PCF11_4 peptide (MAGE-A11:PCF11) (P43364 218-429): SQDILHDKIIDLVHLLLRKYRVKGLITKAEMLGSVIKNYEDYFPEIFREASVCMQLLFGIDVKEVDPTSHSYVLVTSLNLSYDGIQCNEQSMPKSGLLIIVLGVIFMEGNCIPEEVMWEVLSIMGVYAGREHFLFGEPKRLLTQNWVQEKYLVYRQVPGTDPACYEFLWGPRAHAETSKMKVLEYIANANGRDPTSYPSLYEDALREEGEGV
row,SMILES,IC50 [µM]
1,COc1ccc(F)cc1CNCCCNc1ccnc2cc(CC3CCCCC3)ccc12 [SJ000311253-1],26.3
2,COc1cccc(CNCCCNc2ccnc3cc(CCc4ccccc4)ccc23)c1O [SJ000311255-1],26.5
3,COc1ccc(F)cc1CNCCCNc1ccnc2cc(CCc3ccccc3)ccc12 [SJ000311256-1],37.1
4,c1ccc(CCc2ccc3c(NCCCNCc4cccc5c4OCO5)ccnc3c2)cc1 [SJ000311257-1],62.3
5,COc1cccc(CNCCCNc2ccnc3cc(CC(C)C)ccc23)c1O [SJ000311259-1],68.5
6,CC(C)Cc1ccc2c(NCCCNCc3cccc4c3OCO4)ccnc2c1 [SJ000311260-1],69.9
7,COc1ccc(F)cc1CNCCCNc1ccnc2cc(CC(C)C)ccc12 [SJ000311261-1],69.9
8,COc1cccc(CNCCCNc2ccnc3cc(C4CCCCC4)ccc23)c1O [SJ000311263-1],32.4
9,c1cc(CNCCCNc2ccnc3cc(C4CCCCC4)ccc23)c2c(c1)OCO2 [SJ000311264-1],23.7
10,COc1ccc(F)cc1CNCCCNc1ccnc2cc(C3CCCCC3)ccc12 [SJ000311265-1],24.2
11,CCC(CC)c1ccc2c(NCCCNCc3cccc(OC)c3O)ccnc2c1 [SJ000311267-1],9.95
12,CCC(CC)c1ccc2c(NCCCNCc3cccc4c3OCO4)ccnc2c1 [SJ000311268-1],28.9
13,CCC(CC)c1ccc2c(NCCCNCc3cc(F)ccc3OC)ccnc2c1 [SJ000311269-1],43
14,COc1cccc(CNCCCNc2ccnc3cc(-c4cc(C(F)(F)F)cc(C(F)(F)F)c4)ccc23)c1O [SJ000311271-1],69.9
15,FC(F)(F)c1cc(-c2ccc3c(NCCCNCc4cccc5c4OCO5)ccnc3c2)cc(C(F)(F)F)c1 [SJ000311272-1],9.02
16,COc1ccc(F)cc1CNCCCNc1ccnc2cc(-c3cc(C(F)(F)F)cc(C(F)(F)F)c3)ccc12 [SJ000311273-1],7.69
17,COc1cccc(CNCCCNc2ccnc3cc(-c4cccc5ccccc45)ccc23)c1O [SJ000311275-1],16
18,c1cc(CNCCCNc2ccnc3cc(-c4cccc5ccccc45)ccc23)c2c(c1)OCO2 [SJ000311276-1],31.2

row,SMILES,IC50 [µM]
1,COc1ccc(F)cc1CNCCCNc1ccnc2cc(-c3cccc4ccccc34)ccc12 [SJ000311277-1],10.3
2,COc1cccc(CNCCCNc2ccnc3cc(-c4ccc(C(F)(F)F)cc4)ccc23)c1O [SJ000311279-1],9.52
3,COc1cccc(CNCCCNc2ccnc3cc(-c4ccccc4)ccc23)c1O [SJ000311283-1],24.1
4,COc1ccc(F)cc1CNCCCNc1ccnc2cc(-c3ccccc3)ccc12 [SJ000311285-1],28.2
5,COc1cccc(CNCCCNc2ccnc3cc(-c4ccc(C(C)(C)C)cc4)ccc23)c1O [SJ000311287-1],4.67
6,CC(C)(C)c1ccc(-c2ccc3c(NCCCNCc4cccc5c4OCO5)ccnc3c2)cc1 [SJ000311288-1],6.87
7,COc1ccc(F)cc1CNCCCNc1ccnc2cc(-c3ccc(C(C)(C)C)cc3)ccc12 [SJ000311289-1],4.62
8,COc1cccc(CNCCCNc2ccnc3cc(-c4ccc5c(c4)OCO5)ccc23)c1O [SJ000311291-1],24.6
9,c1cc(CNCCCNc2ccnc3cc(-c4ccc5c(c4)OCO5)ccc23)c2c(c1)OCO2 [SJ000311292-1],30.5
10,COc1ccc(F)cc1CNCCCNc1ccnc2cc(-c3ccc4c(c3)OCO4)ccc12 [SJ000311293-1],29.9
11,COc1ccc(-c2ccc3c(NCCCNCc4cccc(OC)c4O)ccnc3c2)cc1 [SJ000311295-1],69.9
12,COc1ccc(-c2ccc3c(NCCCNCc4cccc5c4OCO5)ccnc3c2)cc1 [SJ000311296-1],69.9
13,COc1ccc(-c2ccc3c(NCCCNCc4cc(F)ccc4OC)ccnc3c2)cc1 [SJ000311297-1],69.9
14,COc1cccc(CNCCCNc2ccnc3cc(Cc4cccc(C(F)(F)F)c4)ccc23)c1O [SJ000311299-1],27.5
15,FC(F)(F)c1cccc(Cc2ccc3c(NCCCNCc4cccc5c4OCO5)ccnc3c2)c1 [SJ000311300-1],12.8
16,COc1ccc(F)cc1CNCCCNc1ccnc2cc(Cc3cccc(C(F)(F)F)c3)ccc12 [SJ000311301-2],22.1
17,COc1cccc(CNCCCNc2ccnc3cc(Cc4ccc(C#N)cc4)ccc23)c1O [SJ000311303-1],51
18,N#Cc1ccc(Cc2ccc3c(NCCCNCc4cccc5c4OCO5)ccnc3c2)cc1 [SJ000311304-1],66

# Same assay, conditions: Table 5, dose response TR-FRET screening of 59 quinoline compounds against MAGE-A11:PCF11; read-out: TR-FRET IC50
row,SMILES,IC50 [µM]
1,c1coc(CNCCCNc2ccnc3cc(C4CCCCC4)ccc23)c1 [SJ000311262-1],> 70
2,c1coc(CNCCCNc2ccnc3cc(-c4cccc5ccccc45)ccc23)c1 [SJ000311274-1],> 70
3,FC(F)(F)c1ccc(-c2ccc3c(NCCCNCc4ccco4)ccnc3c2)cc1 [SJ000311278-1],22.7
4,c1coc(CNCCCNc2ccnc3cc(-c4ccc5c(c4)OCO5)ccc23)c1 [SJ000311290-1],> 70

# Same assay, conditions: Table 6, 4-aminoquinoline compounds; read-out: TR-FRET, IC50
row,SMILES,IC50 [µM]
1,FC(F)(F)c1ccc(-c2ccc3c(NCCCNCc4cccc5c4OCO5)ccnc3c2)cc1 [SJ000311280-01],4.07
2,COc1ccc(F)cc1CNCCCNc1ccnc2cc(-c3ccc(C(F)(F)F)cc3)ccc12 [SJ000311281-01],5.58
3,c1ccc(-c2ccc3c(NCCCNCc4cccc5c4OCO5)ccnc3c2)cc1 [SJ000311284-01],20.6

# Same assay, conditions: Table 8, representative compounds; read-out: TR-FRET IC50
row,SMILES,IC50 [µM]
1,COc1ccc(F)cc1CNCCCNc1ccnc2cc(CC3CCCCC3)ccc12 [SJ000311253],26.3
2,COc1cccc(CNCCCNc2ccnc3cc(CCc4ccccc4)ccc23)c1O [SJ000311255],26.6
3,COC1CCCC(F)CC1CNCCCNc1ccnc2cc(CCc3ccccc3)ccc12 (stereo not drawn) [SJ000311256],37.1
4,c1ccc(CCc2ccc3c(NCCCNCc4cccc5c4OCO5)ccnc3c2)cc1 [SJ000311257],62.3
5,COc1cccc(CNCCC/N=C2/C=CNC3=CC=C(CC(C)C)C=CC32)c1O (stereo not drawn) [SJ000311259],68.5
6,CC(C)Cc1ccc2c(NCCCNCc3cccc4c3OCO4)ccnc2c1 [SJ000311260],69.9
7,COc1ccc(F)cc1CNCCCNc1ccnc2cc(CC(C)C)ccc12 [SJ000311261],69.9
8,COc1cccc(CNCCCNc2ccnc3cc(C4CCCCC4)ccc23)c1O [SJ000311263],32.4
9,c1cc(CNCCCNc2ccnc3cc(C4CCCCC4)ccc23)c2c(c1)OCO2 [SJ000311264],23.7
10,COc1ccc(F)cc1CNCCCNc1ccnc2cc(C3CCCCC3)ccc12 [SJ000311265],24.2
11,CCC(CC)c1ccc2c(NCCCNCc3cccc(OC)c3O)ccnc2c1 [SJ000311267],9.95
12,CCC(CC)c1ccc2c(NCCCNCc3cccc4c3OCO4)ccnc2c1 [SJ000311268],28.9
13,CCC(CC)c1ccc2c(NCCCNCc3cc(F)ccc3OC)ccnc2c1 [SJ000311269],43
14,COc1cccc(CNCCCNc2ccnc3cc(-c4cc(C(F)(F)F)cc(C(F)(F)F)c4)ccc23)c1O [SJ000311271],69.9
15,FC(F)(F)c1cc(-c2ccc3c(NCCCNCc4cccc5c4OCO5)ccnc3c2)cc(C(F)(F)F)c1 [SJ000311272],9.02
16,COc1ccc(F)cc1CNCCCNc1ccnc2cc(-c3cc(C(F)(F)F)cc(C(F)(F)F)c3)ccc12 [SJ000311273],7.69
17,COc1cccc(CNCCCNc2ccnc3cc(C4=CC=CC5=CC=CC=CC54)ccc23)c1O (stereo not drawn) [SJ000311275],16
18,c1cc(CNCCCNc2ccnc3cc(-c4cccc5ccccc45)ccc23)c2c(c1)OCO2 [SJ000311276],31.2
19,COc1ccc(F)cc1CNCCCNc1ccnc2cc(-c3cccc4ccccc34)ccc12 [SJ000311277],10.3

row,SMILES,IC50 [µM]
1,COc1cccc(CNCCCNc2ccnc3cc(-c4ccc(C(F)(F)F)cc4)ccc23)c1O [SJ000311279],9.52
2,FC(F)(F)c1ccc(-c2ccc3c(NCCCNCc4cccc5c4OCO5)ccnc3c2)cc1 [SJ000311280-01],15.7
3,COc1ccc(F)cc1CNCCCNc1ccnc2cc(-c3ccc(C(F)(F)F)cc3)ccc12 [SJ000311281-01],13.4
4,COc1cccc(CNCCCNc2ccnc3cc(-c4ccccc4)ccc23)c1O [SJ000311283],24.1
5,c1ccc(-c2ccc3c(NCCCNCc4cccc5c4OCO5)ccnc3c2)cc1 [SJ000311284-01],22.2
6,COc1ccc(F)cc1CNCCCNc1ccnc2cc(-c3ccccc3)ccc12 [SJ000311285],28.2
7,COc1cccc(CNCCCNc2ccnc3cc(-c4ccc(C(C)(C)C)cc4)ccc23)c1O [SJ000311287],4.67
8,CC(C)(C)c1ccc(-c2ccc3c(NCCCNCc4cccc5c4OCO5)ccnc3c2)cc1 [SJ000311288],6.87
9,COc1ccc(F)cc1CNCCCNc1ccnc2cc(-c3ccc(C(C)(C)C)cc3)ccc12 [SJ000311289],2.04
10,COc1cccc(CNCCCNc2ccnc3cc(-c4ccc5c(c4)OCO5)ccc23)c1O [SJ000311291],24.6
11,c1cc(CNCCCNc2ccnc3cc(-c4ccc5c(c4)OCO5)ccc23)c2c(c1)OCO2 [SJ000311292],30.5
12,COc1ccc(F)cc1CNCCNc1ccnc2cc(-c3ccc4c(c3)OCO4)ccc12 [SJ000311293],29.9
13,COc1ccc(-c2ccc3c(NCCCNCc4cccc(OC)c4O)ccnc3c2)cc1 [SJ000311295],69.9
14,COc1ccc(-c2ccc3c(NCCCNCc4cccc5c4OCO5)ccnc3c2)cc1 [SJ000311296],69.9
15,COc1ccc(-c2ccc3c(NCCCNCc4cc(F)ccc4OC)ccnc3c2)cc1 [SJ000311297],69.9
16,COc1cccc(CNCCCNc2ccnc3cc(Cc4cccc(C(F)(F)F)c4)ccc23)c1O [SJ000311299],27.5
17,FC(F)(F)c1cccc(Cc2ccc3c(NCCCNCc4cccc5c4OCO5)ccnc3c2)c1 [SJ000311300],12.8
18,COc1ccc(F)cc1CNCCCNc1ccnc2cc(Cc3cccc(C(F)(F)F)c3)ccc12 [SJ000311301],22.2
19,COC1CCCC(CNCCCNc2ccnc3cc(Cc4ccc(C#N)cc4)ccc23)C1O (stereo not drawn) [SJ000311303],51

# Same assay, conditions: read-out: IC50 by TR-FRET for disrupting MAGE-A11:PCF11 interaction
row,SMILES,IC50 [µM]
1,FC(F)(F)c1ccc(-c2ccc3c(NCCCNCc4cccc5c4OCO5)ccnc3c2)cc1 [SJ000311280-01],4.07
2,COc1ccc(F)cc1CNCCCNc1ccnc2cc(-c3ccc(C(F)(F)F)cc3)ccc12 [SJ000311281-01],5.58
3,c1ccc(-c2ccc3c(NCCCNCc4cccc5c4OCO5)ccnc3c2)cc1 [SJ000311284-01],20.6
